The values below come from US6868343B1, “Interactions between substances and surfaces that are made up of amphiphilic molecules” (NIMBUS Biotechnologie GmbH, priority 1998, dated 2005).

Data set [1] in a line: Membrane-water distribution by HPLC on solid-supported egg lecithin bilayer (column A1). The data set is classed as physicochemical. The following applies: column A1, pH 7.4, 23° C., calculated from retention time via calibration curve; read-out: logDcal-PC, pH 7.4.
Text: A natural mixture of egg lecithin and 0.03 mole % fluorescence marker 1-hexadecanoyl-2-(1-pyrenedecanoyl)-sn-glycero-3-phosphocholine is suspended in chloroform and the solvent completely removed in vacuo. The lipids are subsequently dispersed in the aqueous buffer (pH 7.4) and small, unilamellar vesicles are produced by ultrasonic treatment. By mixing with spherical, porous silicate structures (silicate gel with 10 μm sphere diameter and 400 nm pore size) at temperatures higher than the Tm of the lipids, the corresponding solid-supported lipid bilayer is obtained by the spontaneous fusion of the vesicles on the silicate surface. […]
For determining the dead time t0 in the selected system, 5 μl of a 5 mM potassium iodide solution is injected into buffer A. In the case of the HPLC column A1 in reproducible manner a t0 of 0.64 min is measured and for column A2 t0=0.58 min. […]
The quantities of compound to be injected are determined on the one hand by its adsorption tendency on the stationary phase and on the other by the detectability of the compound. As a rule most reference compounds can be detected using spectroscopic methods (here UV/V is spectroscopy at 210 nm). The measured retention times tR are directly correlated with the octanol/water partition coefficient using a prior art equation system. […]
In the present example logD cal-PC, pH 7.4 is determined.
A short description of data set [2]: Partition coefficient between solid-supported membrane C (DEPC) and aqueous compartment, UV/Vis at 304 nm. The data set is classed as physicochemical. The conditions noted are these: pH 7.4, tetracaine 25 μm, buffer A. The text has this:
The process for determining lipid binding constants with the aid of solid, biocompatible surfaces can also be used for pharmaceuticals. […] For an analyzing the partition coefficient of this pharmaceutical between the lipid and water phases, as described in example 1, porous silicate structures are coated with a charge-neutral membrane of 99.97 mole % zwitterionic lecithin 1,2-dielaidoyl-sn-3-glycero-3-phosphocholine (DEPC) and 0.03 mole % fluorescence marker 1-hexadecanoyl-2-(-pyrenedecanoyl)-sn-glycero-3-phosphocholine (hereinafter called membrane C).
The active agent tetracaine to be analyzed is placed in double sample form in aqueous solution (buffer A) in a constant concentration of 25 μm and mixed with different quantities of membrane C (concentration range of the lipid 5*10^−5−2*10^−3 mole/l). […] The free active agent concentration in the supernatant material can be rapidly determined in the case of the UV-active compound tetracaine with the aid of UV/Vis spectroscopy (detection at 304 nm). Alternatively the remaining lipid-free supernatant materials can be analyzed using chromatographic methods (HPLC, gas chromatography, etc.). […]
The partition coefficient found for tetracaine between the solid-supported membrane C and the aqueous compartment at the physiologically relevant pH-value 7.4 is 1.4. The binding constants are calculated according to standard procedures.

For the compound `CC(=O)CC(c1ccccc1)c1c(O)c2ccccc2oc1=O` (centres unmarked) [Warfarin, 3-(-acetonylbenzyl)-4-hydroxycoumarin], the chromatographic logD in data set [1] was 1.1. Regarding `CCCCNc1ccc(C(=O)OCCN(C)C)cc1` [tetracaine], in data set [2], the “partition coefficient between solid-supported membrane C and aqueous compartment” value is given as 1.4.
